Assays:
[1] = test system: Balb/CJ mice, ovalbumin-sensitized and challenged; assay: Mouse model of asthma: methacholine-induced airway reactivity (Penh) in ovalbumin-sensitized mice; format: in vivo; settings: po, 768 h, 50 mg/kg p.o., days 26-32, % inhibition of the PenH vs McH dose AUC compared with vehicle control, day 32, read-out: Reduction of Penh AUC at 50 mg/kg p.o.
Description: Protocol for Testing Compounds in a Mouse Model of Asthma
Male 5-6 week old Balb/CJ mice were obtained from Jackson Laboratories (Bar Harbor, Me.). All experimental animals were used in accordance to Institutional Animal Care and Use Committee of AtheroGenics, Inc. Mice were sensitized by administering an intraperitoneal injection of 20 μg of ovalbumin (Calbiochem, La Jolla, Calif.) adsorbed in 2 mg of alum (Imject Alum; Pierce, Rockford, Ill.) on day 0 and 14. A group of mice received saline and served as negative control animals. The mice were challenged by aerosol exposure to ovalbumin (1% [wt/vol]) for 25 minutes on 3 consecutive days (days 28, 29, and 30) in a plexiglas exposure chamber coupled to an Aeroneb nebulizer (Buxco Electronics, Wilmington, N.C.). Experimental compounds were dissolved in Glycofurol/PEG 300/Tween (35%/55%/10%) (Sigma-aldrich; Milwaukee, Wis.). Animals were dosed orally with either test compound or vehicle (6 ml/kg dosing volume) on days 26-32 of study. Compound or vehicle was administered 2 hour before the aerosol challenge on days 28, 29, and 30 and 1 hour before airway reactivity measurement on day 32.
Methacholine-induced airway reactivity was assessed on day 32. Methacholine was administered in increasing concentrations ([…], 1.5, 3, 6, 12, 25, and 50 mg/ml) to unrestrained mice. Increases in airway resistance to Methacholine were determined as enhanced pause, (Penh) values, during and after the exposure (6-minute total analysis time). Mice were then humanely euthanized with an overdose of ketamine/xylazine and plasma samples collected for determination of drug levels. The data is presented as the % inhibition of the PenH vs McH dose AUC compared with the vehicle control.
Data analysis was conducting using the software package, JMP (SAS Institute Inc; Cary, N.C.). The Dunnett's multiple comparison test was used to compare treatment group means to the vehicle control group. P values of less than 0.05 were considered statistically significant. The data (Table 1) are presented as the % inhibition of the PenH vs McH dose AUC compared with the vehicle control.

[2] = test system: IL-8 secreted by human pulmonary artery endothelial cells (HPAEC); assay: In vitro IL-8 assay: TNF-alpha-stimulated IL-8 secretion by HPAEC, ELISA; format: cell-based; settings: Endothelial cell, 10 microM compound, 20 hrs preincubation, then 2 ng/ml TNF-alpha for 4 hrs
Description: (§1) In Vitro IL-6 and IL-8 Assays
(§2) Compounds at dosing concentrations (with 0.2% DMSO vehicle) were incubated in EGM2MV cell media at 37° C. for overnight, added to 96-well plates seeded with confluent human pulmonary artery endothelial cells (HPAEC) for 20 hrs at 37° C., and then replaced with fresh dosing media containing 2 ng/ml tumor necrosis factor alpha for additional 4 hrs at 37° C. Afterwards, media was removed and used in ELISA assay to quantify the amount of IL-6 and IL-8 secreted by the cells using R&D Systems Duoset ELISA kits.

[3] = test system: IL-6 secreted by human pulmonary artery endothelial cells (HPAEC); assay: In vitro IL-6 assay: TNF-alpha-stimulated IL-6 secretion by HPAEC, ELISA; format: cell-based; settings: Endothelial cell, 10 microM compound, 20 hrs preincubation, then 2 ng/ml TNF-alpha for 4 hrs
Description: as §1, §2

Compound | melting point [°C] | inhibition in vivo at 50 mg/kg [1] [%] | inhibition at 10 µM [2] [%] | inhibition at 10 µM [3] [%]
Cc1cc2c(cc1O)C(C)(C)CC1(CC(C)(C)c3cc(OCC(=O)O)c(C)cc3O1)O2 (racemic) [Example 7, (±)-6′-(Hydroxy-4,4,4′,4′,7,7′-hexamethyl-2,2′-spirobichroman-6-yloxy)-acetic acid] | 227 to 229 | > 40 | 0 | 12
Cc1cc2c(cc1O)C(C)(C)CC1(CC(C)(C)c3cc(OCCCC(=O)O)c(C)cc3O1)O2 (racemic) [Example 12, 4-[(±)-(6′-Hydroxy-4,4,4′,4′,7,7′-hexamethyl-2,2′-spirobichroman-6-yloxy)-]butyric acid] | 173 to 174 | < 20 | 0 | 0
Cc1cc2c(cc1OCC(=O)O)C(C)(C)CC1(CC(C)(C)c3cc(OCC(=O)O)c(C)cc3O1)O2 (racemic) [Example 21, (±)-[(4,4,4′,4′,7,7′-Hexamethyl-2,2′-spirobichroman-6,6′-diyl)bis(oxy)]-bis-acetic acid] | > 260 | 20 to 40 | 19 | 25

Source: patent publication US20080280974A1, “Spiro compounds for treatment of inflammatory disorders” (priority 2007, published 2008)
